Assay results taken from patent publication US20230107642A1 (Erasca, Inc., priority 2020, published 2023).

Target: T1, Cys12 of the KRAS 4B G12C protein (Homo sapiens, UniProt P01116, G12C)
T1 construct: This protein contained 188 amino acids in total, including an N-terminal 6-Histidine tag; made in house; host or cells: E. coli BL21
Test: In vitro covalent adduct formation (CAF) assay, LC-MS intact mass
Assay type: binding
Settings: 10 uM compound, 60 min
Procedure, shortened: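 GDP-loaded (>95%) His-TEV-tagged KRAS 4B G12C (residues 1–169), 5 μM in TBS pH 7.4, incubated with 10 μM compound (4% DMSO) at 22° C for one hour. Intact-protein LC-MS gave free:adduct ratios, reported as percent protein modified; duplicate runs.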

| Structure (SMILES) | % CAF 10 uM @ 60 min |
| --- | --- |
| C=CC(=O)N1[C@H](C)CN(c2nc(=O)n3c4c(c(-c5cc(Cl)c(F)cc5F)c(C(F)(F)F)cc24)SC[C@@H]3CN(C)C)C[C@@H]1C (atropisomer, axis not shown) [Example 1375, (3S,10R)-7-((3S,5R)-4-acryloyl-3,5-dimethylpiperazin-1-yl)-10-(5-chloro-2,4-difluorophenyl)-3-((dimethylamino)methyl)-9-(trifluoromethyl)-2,3-dihydro-5H-[1,4]thiazino[2,3,4-ij]quinazolin-5-one] | 93.9% |
| C=CC(=O)N1[C@H](C)CN(c2nc(=O)n3c4c(c(-c5cc(Cl)c(F)cc5F)c(C(F)(F)F)cc24)SC[C@@H]3CN(C)C)C[C@@H]1C (atropisomer, axis not shown) [Example 1376, (3S,10S)-7-((3S,5R)-4-acryloyl-3,5-dimethylpiperazin-1-yl)-10-(5-chloro-2,4-difluorophenyl)-3-((dimethylamino)methyl)-9-(trifluoromethyl)-2,3-dihydro-5H-[1,4]thiazino[2,3,4-ij]quinazolin-5-one] | 83.9% |
| C=CC(=O)N1C[C@H](C)N(c2nc(=O)n3c4c(c(-c5cccc6cnn(C)c56)c(C(F)(F)F)cc24)SC[C@@H]3CN2CCN(CC)CC2)C[C@H]1C (atropisomer, axis not shown) [Example 1381, (3S,10R)-7-((2S,5R)-4-acryloyl-2,5-dimethylpiperazin-1-yl)-3-((4-ethylpiperazin-1-yl)methyl)-10-(1-methyl-1H-indazol-7-yl)-9-(trifluoromethyl)-2,3-dihydro-5H-[1,4]thiazino[2,3,4-ij]quinazolin-5-one] | 19.1% |
| C=CC(=O)N1C[C@H](C)N(c2nc(=O)n3c4c(c(-c5cccc6cnn(C)c56)c(C(F)(F)F)cc24)SC[C@@H]3CN2CCN(CC)CC2)C[C@H]1C (atropisomer, axis not shown) [Example 1382, (3S,10S)-7-((2S,5R)-4-acryloyl-2,5-dimethylpiperazin-1-yl)-3-((4-ethylpiperazin-1-yl)methyl)-10-(1-methyl-1H-indazol-7-yl)-9-(trifluoromethyl)-2,3-dihydro-5H-[1,4]thiazino[2,3,4-ij]quinazolin-5-one] | 49.1% |
| C=CC(=O)N1C[C@H](C)N(c2nc(=O)n3c4c(c(-c5cccc6cnn(C)c56)c(C(F)(F)F)cc24)SC[C@@H]3CN2CCN(C3CC3)CC2)C[C@H]1C (atropisomer, axis not shown) [Example 1388, (3S,10S)-7-((2S,5R)-4-acryloyl-2,5-dimethylpiperazin-1-yl)-3-((4-cyclopropylpiperazin-1-yl)methyl)-10-(1-methyl-1H-indazol-7-yl)-9-(trifluoromethyl)-2,3-dihydro-5H-[1,4]thiazino[2,3,4-ij]quinazolin-5-one] | 95.3% |
| C=CC(=O)N1[C@H](C)CN(c2nc(=O)n3c4c(c(-c5cccc6cnn(C)c56)c(C(F)(F)F)cc24)SC[C@@H]3CN2CCN(CC)CC2)C[C@@H]1C (atropisomer, axis not shown) [Example 1389, (3S,10S)-7-((3S,5R)-4-acryloyl-3,5-dimethylpiperazin-1-yl)-3-((4-ethylpiperazin-1-yl)methyl)-10-(1-methyl-1H-indazol-7-yl)-9-(trifluoromethyl)-2,3-dihydro-5H-[1,4]thiazino[2,3,4-ij]quinazolin-5-one] | 69.1% |
| C=CC(=O)N1CCN(c2nc(=O)n3c4c(c(-c5ccc(F)cc5F)c(C(F)(F)F)cc24)SC[C@@H]3CN2CCN(C3CC3)CC2)CC1 (atropisomer, axis not shown) [Example 1390, (3S,10R)-7-(4-acryloylpiperazin-1-yl)-3-((4-cyclopropylpiperazin-1-yl)methyl)-10-(2,4-difluorophenyl)-9-(trifluoromethyl)-2,3-dihydro-5H-[1,4]thiazino[2,3,4-ij]quinazolin-5-one] | 96.7% |
| C=CC(=O)N1CCN(c2nc(=O)n3c4c(c(-c5ccc(F)cc5F)c(C(F)(F)F)cc24)SC[C@@H]3CN2CCN(C3CC3)CC2)CC1 (atropisomer, axis not shown) [Example 1391, (3S,10S)-7-(4-acryloylpiperazin-1-yl)-3-((4-cyclopropylpiperazin-1-yl)methyl)-10-(2,4-difluorophenyl)-9-(trifluoromethyl)-2,3-dihydro-5H-[1,4]thiazino[2,3,4-ij]quinazolin-5-one] | 95.9% |
| [2H]C([2H])=C([2H])C(=O)N1[C@H](C)CN(c2nc(=O)n3c4c(c(-c5cc(Cl)c(F)cc5F)c(C(F)(F)F)cc24)SC[C@@H]3COC)C[C@@H]1C (atropisomer, axis not shown) [Example 1392, (3S,10S)-7-((3S,5R)-4-(acryloyl-d3)-3,5-dimethylpiperazin-1-yl)-10-(5-chloro-2,4-difluorophenyl)-3-(methoxymethyl)-9-(trifluoromethyl)-2,3-dihydro-5H-[1,4]thiazino[2,3,4-ij]quinazolin-5-one] | 64.9% |
| C=CC(=O)N1CCN(c2nc(=O)n3c4c(c(-c5ccc(F)c6cnn(C)c56)c(C(F)(F)F)cc24)SC[C@@H]3COC)CC1 (atropisomer, axis not shown) [Example 1392a, (3S,10S)-7-(4-acryloylpiperazin-1-yl)-10-(4-fluoro-1-methyl-1H-indazol-7-yl)-3-(methoxymethyl)-9-(trifluoromethyl)-2,3-dihydro-5H-[1,4]thiazino[2,3,4-ij]quinazolin-5-one] | 97.2% |
| [2H]C([2H])=C([2H])C(=O)N1[C@H](C)CN(c2nc(=O)n3c4c(c(-c5cc(Cl)c(F)cc5F)c(C(F)(F)F)cc24)SC[C@@H]3COC)C[C@@H]1C (atropisomer, axis not shown) [Example 1393, (3S,10R)-7-((3S,5R)-4-(acryloyl-d3)-3,5-dimethylpiperazin-1-yl)-10-(5-chloro-2,4-difluorophenyl)-3-(methoxymethyl)-9-(trifluoromethyl)-2,3-dihydro-5H-[1,4]thiazino[2,3,4-ij]quinazolin-5-one] | 95.4% |
| C=CC(=O)N1CCN(c2nc(=O)n3c4c(c(-c5cc(Cl)c(F)cc5F)c(C(F)(F)F)cc24)SCC2(COC2)C3)CC1 (atropisomer, axis not shown) [Example 1396, (R)-8′-(4-acryloylpiperazin-1-yl)-11′-(5-chloro-2,4-difluorophenyl)-10′-(trifluoromethyl)-2′H,4′H,6′H-spiro[oxetane-3,3′-[1,4]thiazepino[2,3-4-ij]quinazolin-6′-one] | 95.1% |
| C=CC(=O)N1CCN(c2nc(=O)n3c4c(c(-c5cc(Cl)c(F)cc5F)c(C(F)(F)F)cc24)SCC2(COC2)C3)CC1 (atropisomer, axis not shown) [Example 1397, (S)-8′-(4-acryloylpiperazin-1-yl)-11′-(5-chloro-2,4-difluorophenyl)-10′-(trifluoromethyl)-2′H,4′H,6′H-spiro[oxetane-3,3′-[1,4]thiazepino[2,3,4-ij]quinazolin]-6′-one] | 78.2% |
| [2H]C([2H])=C([2H])C(=O)N1[C@H](C)CN(c2nc(=O)n3c4c(c(-c5ccc(F)cc5F)c(C(F)(F)F)cc24)SC[C@@H]3COC)C[C@@H]1C (atropisomer, axis not shown) [Example 1404, (3S,10S)-7-((3S,5R)-4-(acryloyl-d3)-3,5-dimethylpiperazin-1-yl)-10-(2,4-difluorophenyl)-3-(methoxymethyl)-9-(trifluoromethyl)-2,3-dihydro-5H-[1,4]thiazino[2,3,4-ij]quinazolin-5-one] | 80.9% |
| [2H]C([2H])=C([2H])C(=O)N1[C@H](C)CN(c2nc(=O)n3c4c(c(-c5ccc(F)cc5F)c(C(F)(F)F)cc24)SC[C@@H]3COC)C[C@@H]1C (atropisomer, axis not shown) [Example 1405, (3S,10R)-7-((3S,5R)-4-(acryloyl-d3)-3,5-dimethylpiperazin-1-yl)-10-(2,4-difluorophenyl)-3-(methoxymethyl)-9-(trifluoromethyl)-2,3-dihydro-5H-[1,4]thiazino[2,3,4-ij]quinazolin-5-one] | 88.6% |
| C=CC(=O)N1[C@H](C)CN(c2nc(=O)n3c4c(c(-c5c(F)ccc6cnn(C)c56)c(C(F)(F)F)cc24)SC[C@@H]3COC)C[C@@H]1C (atropisomer, axis not shown) [Example 1406, (3S,10R)-7-((3S,5R)-4-acryloyl-3,5-dimethylpiperazin-1-yl)-10-(6-fluoro-1-methyl-1H-indazol-7-yl)-3-(methoxymethyl)-9-(trifluoromethyl)-2,3-dihydro-5H-[1,4]thiazino[2,3,4-ij]quinazolin-5-one] | 75.9% |
| C=CC(=O)N1[C@H](C)CN(c2nc(=O)n3c4c(c(-c5cccc6cnn(C)c56)c(C(F)(F)F)cc24)SC[C@@H]3CN2CCN(C3CC3)CC2)C[C@@H]1C (atropisomer, axis not shown) [Example 1411, (3S,10R)-7-((3S,5R)-4-acryloyl-3,5-dimethylpiperazin-1-yl)-3-((4-cyclopropylpiperazin-1-yl)methyl)-10-(1-methyl-1H-indazol-7-yl)-9-(trifluoromethyl)-2,3-dihydro-5H-[1,4]thiazino[2,3,4-ij]quinazolin-5-one] | 0% |
| C=CC(=O)N1[C@H](C)CN(c2nc(=O)n3c4c(c(-c5cccc6cnn(C)c56)c(C(F)(F)F)cc24)SC[C@@H]3CN2CCN(C3CC3)CC2)C[C@@H]1C (atropisomer, axis not shown) [Example 1412, (3S,10S)-7-((3S,5R)-4-acryloyl-3,5-dimethylpiperazin-1-yl)-3-((4-cyclopropylpiperazin-1-yl)methyl)-10-(1-methyl-1H-indazol-7-yl)-9-(trifluoromethyl)-2,3-dihydro-5H-[1,4]thiazino[2,3,4-ij]quinazolin-5-one] | 85.4% |
